Literature values, collected in US11293039B2, “Method for producing organic acid salts from fermentation broth” (METABOLIC EXPLORER, priority 2017, dated 2022).

Conditions: dilute aqueous solution, 25 °C

Molecule	pKa
Alloxanic acid	6.64
N#CCC(=O)O [Cyanoacetic acid]	2.45
CC(Cl)C(=O)O (stereo not shown) [2-Chloropropanoic acid]	2.83
CC(CC(=O)O)CC(=O)O [3-Methylglutaric acid]	4.24
N#CCCCC(=O)O [4-Cyanobutanoic acid]	2.42
O=C(O)C(O)CO (stereo not shown) [Glyceric acid]	3.52
CC(C(=O)O)C(=O)O [Methymalonic acid]	3.07
O=C(O)CCCl [3-Chloropropanoic acid]	3.98
O=C(O)[C@@H]1CCCCN1 [l-Pipecolic acid]	2.28
O=C(O)CCCCCCC(=O)O [Octanedioic acid]	4.52
